Laboratory results taken from patent publication US20250236616A1, “IMMUNOMODULATING AZALIDES” (Zoetis Services LLC, priority 2021, published 2025).
Where two headings read alike, the source gives them in different places. Marks after values point to notes of the source that are not given here.

What was measured:
Type in all cases: cell-based
[1] = system: BRD pathogens, M. haemolytica and P. multocida; assay: MIC screening panel, BRD pathogens (CLSI broth micro-dilution)
Excerpt: Primary screening of the compounds of the invention included the evaluation of antibacterial activity of analogs through determination of microbial inhibition concentration (MIC) as per CLSI guidelines. The screening panel included the relevant BRD pathogens: 1) M. haemolytica (e.g., 12726, 46571 and 49023, all AHDRCC; and 33396 (ATCC)); and 2) P. multocida (e.g., 34135 and 46572 (both AHDRCC) and 43137 (ATCC)). In some instances, H. somni (A700025K) pathogens were also included in the screening panel. The AHDRCC strains originated from the Zoetis BRD/SRD surveillance program and refer to the Animal Health Development and Research Culture Collection. In addition, the screen assessed S. aureus (29213 ATCC) as a representative Gram-positive isolate, E.faecalis (19433 ATCC) as a commensal gram-positive gastrointestinal bacterium and E. coli (100, 3110 and 25922 (ATCC)) for the evaluation of efflux potential. The screening panel BRD pathogens were assessed in determining antibacterial activity of the Formula (1) compounds.
All relevant BRD pathogens were initially screened at a top concentration of 64 μg/mL of a Formula (1) compound in an eleven-point dilution series. […] If an Example was purified further, the MICs moved […] essentially two dilutions across all strains tested in the screening panel.
In-Vitro MIC Model Compounds were analyzed for antibacterial activity against a panel of animal health specific gram-positive and gram-negative clinical strains by diluting compounds in DMSO to an appropriate stock concentration to determine the Minimal Inhibitory Concentration (MIC) via a semi-automated broth micro-dilution method (CLSI reference method) with QC strains and anti-microbial agent(s). Specifically, bacteria were grown overnight on TSA w/5% sheep blood agar plates and diluted in saline buffer to a McFarland Standard 0.5, then further diluted in cation-ion adjusted Mueller Hinton Broth to a final concentration of approximately 5×10^5 CFU/mL. 100 μL of inoculated media was added to 96-well plate(s) with 3 μL of serially diluted compound in each row. Depending on strain (see CLSI reference method), bacteria were incubated 18-22 hours at 35-37° C. in ambient air, with 5% CO2 or anaerobically (up to 48 hours).

TNF-α = assay: Whole bovine blood assay, LPS-induced TNF-α; conditions: fresh whole bovine blood, LPS stimulant; top drug concentration 250 μM
Outline: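 Fresh heparinized bovine whole blood was preincubated with compound 4 h at 37 °C, then stimulated with LPS (final 1 μg/mL) for 18 h at 37 °C. Plasma TNF-α was quantified by MSD U-Plex chemiluminescent immunoassay, normalized to total protein (BCA), and IC50 taken for LPS-induced TNF-α inhibition.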

IL-1β = assay: Whole bovine blood assay, LPS-induced IL-1β (inhibition / overstimulation); conditions: drug concentration giving overstimulation (OS) of LPS-induced IL-1β, top concentration 250 μM
Outline: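 IL-1β was quantified by MSD U-Plex chemiluminescence in plasma and normalized to BCA total protein. Bovine blood was pretreated 4 h at 37 °C with compound dilutions before 18 h LPS challenge (1 μg/mL final). Rising IL-1β at high concentrations was recorded as overstimulation.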

IL-6 = assay: Whole bovine blood assay, LPS-induced IL-6; conditions: fresh whole bovine blood, LPS stimulant; top drug concentration 250 μM
[2] = Table B, at least one BRD pathogenic strain, top concentration 64 μg/mL, read-out: MIC flag (*) for BRD pathogenic strains
[3] = Table B, at least one BRD pathogenic strain, top concentration 64 μg/mL

Compound | MIC ([1]; BRD pathogens M. haemolytica and P. multocida, read-out: antibacterial / non-antibacterial (MIC class)) [µg/mL] | MIC [1, 2] [µg/mL] | MIC flag (*) for BRD pathogenic strains [1, 3] | IC50 (TNF-α) [µM] | minimal effective concentration (IL-1β) [µM] | IC50 (IL-6) [µM]
CC[C@H]1OC(=O)[C@H](C)[C@@H](O[C@H]2C[C@@](C)(OC)[C@](O)(CC#N)[C@H](C)O2)[C@H](C)[C@@H](O[C@@H]2O[C@H](C)C[C@H](N(C)S(=O)(=O)c3ccc(Cl)cc3)[C@H]2O)[C@](C)(O)C[C@@H](C)CN[C@H](C)[C@@H](O)[C@]1(C)O [Example A6-1, 4-chloro-N-((2S,3R,4S,6R)-2-(((2R,3S,4R,5R,8R,10R,11R,12S,13S,14R)-13-(((2R,4R,5S,6S)-5-(cyanomethyl)-5-hydroxy-4-methoxy-4,6-dimethyltetrahydro-2H-pyran-2-yl)oxy)-2-ethyl-3,4,10-trihydroxy-3,5,8,10,12,14-hexamethyl-15-oxo-1-oxa-6-azacyclopentadecan-11-yl)oxy)-3-hydroxy-6-methyltetrahydro-2H-pyran-4-yl)-N-methylbenzenesulfonamide] | > 64 | – | – | – | – | –
CCCNC[C@]1(O)[C@H](C)O[C@@H](O[C@H]2[C@H](C)[C@@H](O[C@@H]3O[C@H](C)C[C@H](N(C)S(=O)(=O)NCCc4ccccc4)[C@H]3O)[C@](C)(O)C[C@@H](C)CN[C@H](C)[C@@H](O)[C@](C)(O)[C@@H](CC)OC(=O)[C@@H]2C)C[C@@]1(C)OC [Example B-40, (2R,3S,4R,5R,8R,10R,11R,12S,13S,14R)-2-ethyl-3,4,10-trihydroxy-13-[(2R,4R,5S,6S)-5-hydroxy-4-methoxy-4,6-dimethyl-5-(propylaminomethyl)oxan-2-yl]oxy-11-[(2S,3R,4S,6R)-3-hydroxy-6-methyl-4-[methyl (2-phenylethylsulfamoyl)amino]oxan-2-yl]oxy-3,5,8,10,12,14-hexamethyl-15-oxo-1-oxa-6-azacyclopentadecane] | – | ≤ 64 | – | – | – | –
CCCNC[C@]1(O)[C@H](C)OC(O[C@H]2[C@H](C)[C@@H](O[C@@H]3O[C@H](C)C[C@H](N(C)S(=O)(=O)c4c(C)noc4C)[C@H]3Oc3ccc(OC)cc3)[C@](C)(O)C[C@@H](C)CN[C@H](C)[C@@H](O)[C@](C)(O)[C@@H](CC)OC(=O)[C@@H]2C)C[C@@]1(C)OC (stereo partly drawn) [Example B-116] | – | – | B-116* (MIC ≤64 μg/mL for at least one BRD pathogenic strain) | – | – | –
CCCNC[C@]1(O)[C@H](C)O[C@@H](O[C@H]2[C@H](C)[C@@H](O[C@@H]3O[C@H](C)C[C@H](N(C)S(=O)(=O)c4ccccc4)[C@H]3Oc3ccc(F)cc3)[C@](C)(O)C[C@@H](C)CN(CC)[C@H](C)[C@@H](O)[C@](C)(O)[C@@H](CC)OC(=O)[C@@H]2C)C[C@@]1(C)OC [Example B-161, N-((2S,3R,4S,6R)-2-(((2R,3S,4R,5R,8R,10R,11R,12S,13S,14R)-2,6-diethyl-3,4,10-trihydroxy-13-(((2R,4R,5S,6S)-5-hydroxy-4-methoxy-4,6-dimethyl-5-((propylamino)methyl)tetrahydro-2H-pyran-2-yl)oxy)-3,5,8,10,12,14-hexamethyl-15-oxo-1-oxa-6-azacyclopentadecan-11-yl)oxy)-3-(4-fluorophenoxy)-6-methyltetrahydro-2H-pyran-4-yl)-N-methylbenzenesulfonamide] | – | ≤ 64 | – | – | – | –
CC[C@H]1OC(=O)[C@H](C)[C@@H](O[C@H]2C[C@@](C)(OC)[C@](O)(CN3CCCCC3)[C@H](C)O2)[C@H](C)[C@@H](O[C@@H]2O[C@H](C)C[C@H](N(C)S(=O)(=O)N(CC)CC)[C@H]2O)[C@](C)(O)C[C@@H](C)CN[C@H](C)[C@@H](O)[C@]1(C)O [Example C-35] | – | – | – | 33 | 11 | 23
CC[C@H]1OC(=O)[C@H](C)[C@@H](O[C@H]2C[C@@](C)(OC)[C@](O)(CN3CCCCC3)[C@H](C)O2)[C@H](C)[C@@H](O[C@@H]2O[C@H](C)C[C@H](N(CC(C)C)S(=O)(=O)Nc3ccc(C(F)(F)F)cc3)[C@H]2O)[C@](C)(O)C[C@@H](C)CN[C@H](C)[C@@H](O)[C@]1(C)O [Example C-44] | – | – | – | 4 | 6 | 4
CC[C@H]1OC(=O)[C@H](C)[C@@H](O[C@H]2C[C@@](C)(OC)[C@](O)(CN3CCCCC3)[C@H](C)O2)[C@H](C)[C@@H](O[C@@H]2O[C@H](C)C[C@H](N(C)S(=O)(=O)c3ccccc3)[C@H]2Oc2ccc(Cl)cn2)[C@](C)(O)C[C@@H](C)CN[C@H](C)[C@@H](O)[C@]1(C)O [Example C-48] | – | – | – | 4 | 6 | 6
CC[C@H]1OC(=O)[C@H](C)[C@@H](O[C@H]2C[C@@](C)(OC)[C@](O)(CN3CCCCC3)[C@H](C)O2)[C@H](C)[C@@H](O[C@@H]2O[C@H](C)C[C@H](N(C)S(=O)(=O)c3nccn3C)[C@H]2Oc2ccnc(F)c2)[C@](C)(O)C[C@@H](C)CN[C@H](C)[C@@H](O)[C@]1(C)O [Example C-49] | – | – | – | 6 | 6 | 9
CC[C@H]1OC(=O)[C@H](C)[C@@H](O[C@H]2C[C@@](C)(OC)[C@](O)(CN3CCCCC3)[C@H](C)O2)[C@H](C)[C@@H](O[C@@H]2O[C@H](C)C[C@H](N(C)S(=O)(=O)c3ccccc3)[C@H]2Oc2ccccc2)[C@](C)(O)C[C@@H](C)CN[C@H](C)[C@@H](O)[C@]1(C)O [Example C-53] | – | – | – | 2 | 6 | 2
CC[C@H]1OC(=O)[C@H](C)[C@@H](O[C@H]2C[C@@](C)(OC)[C@](O)(CN3CCCCC3)[C@H](C)O2)[C@H](C)[C@@H](O[C@@H]2O[C@H](C)C[C@H](N(C)S(=O)(=O)c3ccccc3)[C@H]2Oc2ccc(F)cc2)[C@](C)(O)C[C@@H](C)CN[C@H](C)[C@@H](O)[C@]1(C)O [Example C-54] | – | – | – | 2 | 6 | 4
CC[C@H]1OC(=O)[C@H](C)[C@@H](O[C@H]2C[C@@](C)(OC)[C@](O)(CN3CCCCC3)[C@H](C)O2)[C@H](C)[C@@H](O[C@@H]2O[C@H](C)C[C@H](N(C)S(=O)(=O)c3ccccc3)[C@H]2Oc2ccnc(F)c2)[C@](C)(O)C[C@@H](C)CN[C@H](C)[C@@H](O)[C@]1(C)O [Example C-55] | – | – | – | 6 | 6 | 9
CCCNC[C@]1(O)[C@H](C)O[C@@H](O[C@H]2[C@H](C)[C@@H](O[C@@H]3O[C@H](C)C[C@H]4[C@H]3OS(=O)(=O)N4C)[C@](C)(O)C[C@@H](C)CN[C@H](C)[C@@H](O)[C@](C)(O)[C@@H](CC)OC(=O)[C@@H]2C)C[C@@]1(C)OC [Example D-1] | – | – | – | 5 | 16 | 27
(2R,3S,4R,5R,8R,10R,11R,12S,13S,14R)-2-ethyl-3,4,10-trihydroxy-13-[(2R,4R,5S,6S)-5-hydroxy-4-methoxy-4,6-dimethyl-5-(propylaminomethyl) oxan-2-yl]oxy-11-[(2S,3R,4S,6R)-3-hydroxy-6-methyl-4-[methyl-[[4-(trifluoromethyl)phenyl]sulfamoyl]-amino]oxan-2-yl]oxy-3,5,6,8,10,12,14-heptamethyl-15-oxo-1-oxa-6-azacyclopentadecane [Example B-159] | – | – | B-159* (MIC ≤64 μg/mL for at least one BRD pathogenic strain) | 4 | – | –
